From article PMC10366214, “The anti-Alzheimer potential of novel spiroindolin-1,2-diazepine derivatives as targeted cholinesterase inhibitors with modified substituents” (Scientific Reports, 2023)
“Also recorded” adds a separate entry of the source. Where two headings read alike, the source gives them in different places.

How the values were obtained:
AChE [1] = biological target: T1, AChE (Homo sapiens, UniProt P22303); assay: Enzyme kinetic study of AChE inhibition (Lineweaver-Burk, Ellman's method); assay type: biochemical
Protocol: As previously reported, the kinetic study of AChE was carried out at five different concentrations of compound 5l and acetylthiocholine substrate (0.1–1 mM) by Ellman's method.

AChE [2] = biological target: T1, AChE; assay: biochemical; conditions: for inhibition at 50 µM: read-out: AChE % inhibition at 50 µM
Protocol: (§1) Cholinesterase inhibitory activities of all analogs were evaluated spectrometrically using the modified Ellman method as previously reported[40],[41]. […] The absorbance of each well was measured at 415 nm using a microplate reader. IC50 values and inhibition values were calculated with the software GraphPad Prism as the mean of three independent experiments and are expressed as mean ± SEM.

[3] = test system: SH-SY5Y neuroblastoma cell line; assay: MTT toxicity assay on SH-SY5Y; assay type: cell-based; conditions: 72 h exposure; tested concentrations up to 50 µM
Protocol: SH-SY5Y cells were maintained in Dulbecco's modified Eagle medium with Ham's F12 medium (DMEM/F12) containing 15% fetal bovine serum100 units/ml penicillin and 100 µg/ml streptomycin. Cells were seeded into flasks containing supplemented medium and maintained at 37 °C in a humidified atmosphere of 5% CO2 and 95% air. Cell viability, virtually the mitochondrial activity of living cells, was measured by quantitative colorimetric assay with MTT, as described previously. MTT reagent, at a final concentration of 0.5 mg/ml, was added to each well at the end of the incubation period, and the plate was placed in a humidified incubator for an additional two h periods. Metabolically active cells convert the yellow MTT tetrazolium compound to a purple formazan product. Then, the insoluble formazan was dissolved with dimethylsulfoxide; colorimetric determination of MTT reduction was measured at 540 nm. Control cells treated media were taken as 100% viability.

BChE [4] = biological target: T2, BChE (Homo sapiens, UniProt P06276); assay: BChE inhibition, modified Ellman method; assay type: biochemical; conditions: for inhibition at 50 µM: read-out: BChE % inhibition at 50 µM
Protocol: as §1

BChE [5] = biological target: T2, BChE; conditions: cited from earlier work
AChE [6] = biological target: T1, AChE; conditions: cited from earlier work
[7] = 50 µM, mean ± S.E of three to five independent experiments

T1 sequence (P22303 32-614): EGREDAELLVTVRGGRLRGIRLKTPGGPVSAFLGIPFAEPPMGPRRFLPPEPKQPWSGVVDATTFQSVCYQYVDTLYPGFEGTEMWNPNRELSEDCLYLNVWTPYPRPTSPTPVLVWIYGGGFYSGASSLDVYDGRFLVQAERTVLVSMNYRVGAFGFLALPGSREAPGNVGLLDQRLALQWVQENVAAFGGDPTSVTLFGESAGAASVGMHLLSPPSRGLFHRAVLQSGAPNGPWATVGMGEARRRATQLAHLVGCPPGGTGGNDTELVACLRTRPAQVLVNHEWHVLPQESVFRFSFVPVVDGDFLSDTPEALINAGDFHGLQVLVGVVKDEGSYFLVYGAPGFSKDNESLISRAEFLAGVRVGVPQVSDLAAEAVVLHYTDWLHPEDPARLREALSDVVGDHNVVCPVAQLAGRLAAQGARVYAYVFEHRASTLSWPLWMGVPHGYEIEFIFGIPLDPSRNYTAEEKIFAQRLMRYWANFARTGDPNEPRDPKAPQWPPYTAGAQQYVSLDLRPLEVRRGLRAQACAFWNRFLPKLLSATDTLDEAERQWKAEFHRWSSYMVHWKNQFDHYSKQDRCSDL
T2 sequence (P06276 29-602): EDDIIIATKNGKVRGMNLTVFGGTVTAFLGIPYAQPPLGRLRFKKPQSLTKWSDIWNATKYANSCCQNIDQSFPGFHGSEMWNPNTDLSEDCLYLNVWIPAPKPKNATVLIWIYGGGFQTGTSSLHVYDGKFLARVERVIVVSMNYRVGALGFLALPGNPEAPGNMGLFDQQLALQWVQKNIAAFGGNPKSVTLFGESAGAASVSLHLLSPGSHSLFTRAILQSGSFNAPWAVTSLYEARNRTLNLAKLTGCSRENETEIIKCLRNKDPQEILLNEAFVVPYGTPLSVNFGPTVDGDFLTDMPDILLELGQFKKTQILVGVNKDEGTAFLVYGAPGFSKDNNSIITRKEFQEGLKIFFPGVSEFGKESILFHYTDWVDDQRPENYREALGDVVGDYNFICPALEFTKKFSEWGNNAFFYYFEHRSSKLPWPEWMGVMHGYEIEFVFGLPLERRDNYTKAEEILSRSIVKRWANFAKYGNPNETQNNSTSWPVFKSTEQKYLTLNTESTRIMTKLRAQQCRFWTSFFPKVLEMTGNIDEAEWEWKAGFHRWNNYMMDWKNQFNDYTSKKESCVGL

SMILES | inhibition at 50 µM (AChE [2]) [%] | inhibition at 50 µM (BChE [4]) [%] | IC50 (BChE [5]) [nM] | IC50 (AChE [6]) [nM] | further results
N#CC1=C(N)NNC(Nc2ccc(O)cc2)=C([N+](=O)[O-])C12C(=O)Nc1ccc([N+](=O)[O-])cc12 (stereo not drawn) [Compound 5l, 3-amino-7-((4-hydroxyphenyl)amino)-5',6-dinitro-2'-oxo-1,2-dihydrospiro[[1,2]diazepine-5,3'-indoline]-4-carbonitrile] | 87.4 ± 5.93 | 5.71 ± 2.82 |  |  | mode of AChE inhibition (AChE [1]; Lineweaver-Burk plot): mixed mode; also recorded: mix type inhibitor; also recorded: mix-type inhibition; Ki (AChE [1]; five inhibitor concentrations (1, 4, 8, 12, 24 µM), acetylthiocholine 0.1-1 mM, read-out: inhibition constant Ki against AChE): 44 nM; IC50 (AChE [2]): 3980 ± 1070 nM; toxicity against SH-SY5Y (MTT cell viability) [3]: no toxicity; also recorded: did not show neurotoxicity; inhibition against BChE (in words) (BChE [4]): no significant inhibition; also recorded: inactive
O=C1Nc2ccccc2/C1=C\c1cc[n+](Cc2ccccc2Cl)cc1 [compound B] |  |  | 1370 | 0.44 | fold more potent than donepezil (AChE) (AChE [6]; versus donepezil as reference drug): 32 fold
Cc1ccc(Cn2cc(COc3cccc(C4Nc5ccccc5NC5=C4C(=O)CC(C)(C)C5)c3)nn2)cc1 (stereo not drawn) [compound E] |  |  | 200 ± 2 |  | AChE Inhibition % at 30 μM (AChE [6]; 30 μM): 12.9%
O=C(CC1(O)C(=O)N(Cc2ccccc2)c2ccccc21)c1ccc(Br)cc1Br (stereo not drawn) [compound C] |  |  | 65 ± 8 | 28 ± 3 | 
Cc1ccc(NC2=C([N+](=O)[O-])C3(C(=O)Nc4ccc(Cl)cc43)C(C#N)=C(N)NN2)cc1C (stereo not drawn) [Compound 5c, 3-amino-5'-chloro-7-((3,4-dimethylphenyl)amino)-6-nitro-2'-oxo-1,2-dihydrospiro[[1,2]diazepine-5,3'-indoline]-4-carbonitrile] |  |  |  |  | AChE % inhibition at 50 µM (AChE [2]; [7]): Not active; inhibition at 50 µM (BChE [4]; [7]): 37 ± 3.78%
COc1ccc(NC2=C([N+](=O)[O-])C3(C(=O)Nc4ccc([N+](=O)[O-])cc43)C(C#N)=C(N)NN2)cc1 (stereo not drawn) [Compound 5i, 3-amino-7-((4-methoxyphenyl)amino)-5',6-dinitro-2'-oxo-1,2-dihydrospiro[[1,2]diazepine-5,3'-indoline]-4-carbonitrile] | 46.1 ± 3.38 | 31.2 ± 3.65 |  |  | 
